Test results from PMC12133982, “Predominant T-cell epitopes of SARS-CoV-2 restricted by multiple prevalent HLA-B and HLA-C allotypes in Northeast Asia” (Frontiers in Immunology, 2025).
Peptide text beside a SMILES is read from it.

Tests used:
HLA-B5201 = HLA-B5201 (Homo sapiens, UniProt P01889, A329T/A93T/A95T/C349S/D138N/D201E/D98Y/E187L/E204Q/E69T/G107R/I218V/K202T/L105A/L119W/N104I/N87E/Q94N/R106L/R155S/R180L/S101N/S121T/S35A/S48A/V306I/V36M/Y195H/Y91S); assay: Competitive peptide binding assay, CIR-B5201; details: HMy2.CIR-B5201 cells, reference Cy5-[…], class from inhibition at 5 and 15 μM, flow cytometry MFI; read-out: Binding affinity with HLA-B5201
Experimental: (§1) Then, competitive peptide binding assays were performed.

HLA-B5101 = HLA-B5101 (Homo sapiens, UniProt P01889, A329T/A93T/A95T/C349S/D138N/D201E/D98Y/E187L/E204Q/E69T/G107R/I218V/K202T/L105A/L119W/N104I/Q94N/R106L/R155S/R180L/S101N/S121T/S35A/S48A/V306I/V36M/Y195H/Y91F); assay: Competitive peptide binding assay, CIR-B5101; details: HMy2.CIR-B5101 cells, reference Cy5-[…], class from inhibition at 5 and 15 μM, flow cytometry MFI; read-out: Binding affinity with HLA-B5101
Experimental: as §1

HLA-B5801 = HLA-B5801 (Homo sapiens, UniProt P01889, A329T/C349S/D201E/D98Y/E176V/E187L/E204Q/E69T/G107R/I218V/I90N/K202T/L105A/L119I/N104I/N87E/Q89R/Q94S/R106L/R155S/R180L/R86G/S101N/S121R/S35A/S48A/T118I/V127L/V306I/V36M/Y140S/Y91M); assay: Competitive peptide binding assay, CIR-B5801; details: HMy2.CIR-B5801 cells, reference Cy5-[…], class from inhibition at 5 and 15 μM, flow cytometry MFI; read-out: Binding affinity with HLA-B5801
Experimental: as §1

HLA-B1302 = HLA-B1302 (Homo sapiens, UniProt P01889, A65T/A93T/A95T/D138N/D201E/D98Y/E176V/E204Q/E69M/E70A/G107R/K202T/L105A/L119W/N104T/N87E/Q94N/R106L/R155S/R169L/R180L/S101N/S121T/S35A/S48T/V127L/V36M/Y140L/Y91S); assay: Competitive peptide binding assay, CIR-B1302; details: HMy2.CIR-B1302 cells, reference Cy5-MMWYWGPSL, class from inhibition at 5 and 15 μM, flow cytometry MFI; read-out: Binding affinity with HLA-B1302
Experimental: as §1

HLA-B4801 = HLA-B4801 (Homo sapiens, UniProt P01889, A269T/A93T/A95T/D138N/D98Y/E176V/N87E/Q94N/R180L/T167S/W171L/Y91S); assay: Competitive peptide binding assay, CIR-B4801; details: HMy2.CIR-B4801 cells, reference Cy5-[…], class from inhibition at 5 and 15 μM, flow cytometry MFI; read-out: Binding affinity with HLA-B4801
Experimental: as §1

HLA-B1501 = HLA-B1501 (Homo sapiens, UniProt P01889, A329T/A93T/A95T/C349S/D201E/D98Y/E187L/E204Q/E69M/E70A/K202T/N87E/Q94N/R155S/R180W/S121R/S35A/S48A/V306I/V36M/Y140S/Y91S); assay: Competitive peptide binding assay, CIR-B1501; details: HMy2.CIR-B1501 cells, reference Cy5-[…], class from inhibition at 5 and 15 μM, flow cytometry MFI; read-out: Binding affinity with HLA-B1501
Experimental: as §1

HLA-B1502 = HLA-B1502 (Homo sapiens, UniProt P01889, A329T/A93T/A95T/C349S/D201E/D98Y/E187L/E204Q/E69M/E70A/H137Y/K202T/L119I/Q94N/R155S/R180L/S121R/S35A/S48A/T118I/V306I/V36M/Y140S/Y91S); assay: Competitive peptide binding assay, CIR-B1502; details: HMy2.CIR-B1502 cells, reference Cy5-[…], class from inhibition at 5 and 15 μM, flow cytometry MFI; read-out: Binding affinity with HLA-B1502
Experimental: as §1

HLA-B4601 = HLA-B4601 (Homo sapiens, UniProt P01889, A329T/A93R/C349S/D201E/E100V/E187L/E204Q/E69M/E70A/I90K/K202T/N87E/R155S/R180W/S121R/S35A/S48A/V306I/V36M/Y140S); assay: Competitive peptide binding assay, CIR-B4601; details: HMy2.CIR-B4601 cells, reference Cy5-[…], class from inhibition at 5 and 15 μM, flow cytometry MFI; read-out: Binding affinity with HLA-B4601
Experimental: as §1

HLA-B0702 = molecular target: T1, HLA-B0702 (Homo sapiens, UniProt P01889); assay: Competitive peptide binding assay, CIR-B0702; details: HMy2.CIR-B0702 cells, reference Cy5-[…], class from inhibition at 5 and 15 μM, flow cytometry MFI
T1 construct: expressed in transfected cells; host or cells: HMy2.CIR
Experimental: as §1

## CC[C@H](C)[C@H](NC(=O)CNC(=O)[C@H](CC(=O)O)NC(=O)[C@H](CCCCN)NC(=O)[C@H](CC(N)=O)NC(=O)[C@H](C)NC(=O)CN)C(=O)N[C@H](C(=O)N[C@@H](Cc1c[nH]c2ccccc12)C(=O)O)[C@@H](C)CC [Epitope Y301] (H-GANKDGIIW-OH; N-terminus and C-terminus assumed)
HLA-B5201
  IC50: > 15 µM
HLA-B5101
  IC50: > 15 µM
HLA-B5801
  IC50: < 5 µM
HLA-B1302
  IC50: > 15 µM
HLA-B4801
  IC50: > 15 µM
HLA-B1501
  IC50: > 15 µM
HLA-B1502
  IC50: > 15 µM
HLA-B4601
  IC50: 5 to 15 µM
HLA-B0702
  IC50: 5 to 15 µM

## CC(C)C[C@H](NC(=O)[C@H](CCC(N)=O)NC(=O)[C@H](CC(=O)O)NC(=O)[C@H](C)NC(=O)[C@@H](N)Cc1c[nH]cn1)C(=O)N[C@H](C(=O)N1CCC[C@H]1C(=O)N[C@H](C(=O)N[C@@H](Cc1c[nH]c2ccccc12)C(=O)O)[C@@H](C)O)[C@@H](C)O [Epitope Y313] (H-HADQLTPTW-OH; N-terminus and C-terminus assumed)
HLA-B5201
  IC50: 5 to 15 µM
HLA-B5101
  IC50: > 15 µM
